Data on 32 compounds can be found in US10112941B2, “Tricyclic compounds as anticancer agents” (BRISTOL-MYERS SQUIBB COMPANY, priority 2013, dated 2018).

In the test the target is BRD4 (Homo sapiens, UniProt O60885). As to the kind of experiment: Time Resolved Fluorescence Resonance Energy Transfer (TR-FRET) binding assay, BRD4. The conditions noted are these: one of the FRET assays described; read-out: FRET BRD4 IC50. Background: In TR-FRET formats the signal depends on donor and acceptor labels being close together.

For orientation: IC50 means the concentration that inhibits the measured activity by half.

For `Cc1nnn(C)c1-c1cnc2c3cc(CC(C)(C)O)ccc3n([C@H](c3ccccc3)C3CCOCC3)c2c1` [Example 255, 1-[3-(Dimethyl-1H-1,2,3-triazol-5-yl)-5-[(S)-oxan-4-yl(phenyl)methyl]-5H-pyrido[3,2-b]indol-8-yl]-2-methylpropan-2-ol], the IC50 is < 5 nM.
Then `Cc1nnn(C)c1-c1cnc2c3ccc(C(C)(C)O)cc3n(C(c3ncccn3)C3CCOCC3)c2c1` (single isomer, unassigned) [Example 292], with < 5 nM.
Under `COc1ccc(S(C)(=O)=O)c2c1c1ncc(-c3c(C)noc3C)cc1n2[C@H](c1ccc(F)cc1)C1CCOCC1` [Example 187, 4-{5-[(S)-(4-Fluorophenyl)(oxan-4-yl)methyl]-6-methanesulfonyl-9-methoxy-5H-pyrido[3,2-b]indol-3-yl}-3,5-dimethyl-1,2-oxazole] stands < 5 nM.
Then `[2H]C([2H])([2H])c1nnn(C)c1-c1cnc2c3cc(F)c(C(C)(O)C4CC4)cc3n([C@H](c3ccccc3)C3CCOCC3)c2c1` (stereo partly drawn) [Example 446, 1-Cyclopropyl-1-{8-fluoro-3-[4-(^2H3)methyl-1-methyl-1H-1,2,3-triazol-5-yl]-5-[(S)-oxan-4-yl(phenyl)methyl]-5H-pyrido[3,2-b]indol-7-yl}ethan-1-ol], with < 5 nM; and `[2H]C([2H])([2H])c1nnn(C)c1-c1cnc2c3c(OC)cc(S(C)(=O)=O)cc3n([C@H](c3ccccc3)C3CCOCC3)c2c1` [Example 197, 5-{7-Methanesulfonyl-9-methoxy-5-[(S)-oxan-4-yl(phenyl)methyl]-5H-pyrido[3,2-b]indol-3-yl}-4-(^2H3)methyl-1-methyl-1H-1,2,3-triazole], with < 5 nM; and `Cc1noc(C)c1-c1cnc2c3ccc(C4(O)COC4)cc3n([C@H](c3ccccc3)C3CCOCC3)c2c1` [Example 244, 3-[3-(Dimethyl-1,2-oxazol-4-yl)-5-[(S)-oxan-4-yl(phenyl)methyl]-5H-pyrido[3,2-b]indol-7-yl]oxetan-3-ol], with < 5 nM.
For `[2H]C([2H])([2H])c1nnn(C)c1-c1cnc2c3c(F)ccc(S(C)(=O)=O)c3n(C(c3ncccc3F)C3CCOCC3)c2c1` (centres unmarked) [Example 236, 3-Fluoro-2-({9-fluoro-6-methanesulfonyl-3-[4-(^2H3)methyl-1-methyl-1H-1,2,3-triazol-5-yl]-5H-pyrido[3,2-b]indol-5-yl}(oxan-4-yl)methyl)pyridine], the IC50 is < 1500 nM.
Under `Cc1noc(C)c1-c1cnc2c3ccc(C(C)(C)O)cc3n(C(c3ccccc3F)C3CCOCC3)c2c1` (single isomer, unassigned) [Example 149, 2-[3-(Dimethyl-1,2-oxazol-4-yl)-5-[(2-fluorophenyl)(oxan-4-yl)methyl]-5H-pyrido[3,2-b]indol-7-yl]propan-2-ol] stands < 5 nM; under `Cc1noc(C)c1-c1cnc2c3ccc(S(C)(=O)=O)cc3n(C(CCC(F)(F)F)c3ccccc3)c2c1` (single isomer, unassigned) [Example 39, 4-[7-Methanesulfonyl-5-(4,4,4-trifluoro-1-phenylbutyl)-5H-pyrido[3,2-b]indol-3-yl]-3,5-dimethyl-1,2-oxazole], < 1500 nM.
Consider `Cc1noc(C)c1-c1cnc2c3ccc(C(C)(C)O)cc3n([C@@H](c3ccccc3)C3CCC3)c2c1` [Example 14], for which the IC50 is < 25 nM.
Under `Cc1nnn(C)c1-c1cnc2c3c(F)cc(C(C)(C)O)cc3n(C(c3c(F)cc(F)cc3F)C3CCOCC3)c2c1` (single isomer, unassigned) [Example 105, 2-[3-(Dimethyl-1H-1,2,3-triazol-5-yl)-9-fluoro-5-[oxan-4-yl(2,4,6-trifluorophenyl)methyl]-5H-pyrido[3,2-b]indol-7-yl]propan-2-ol] stands < 5 nM; under `Cc1nnn(C)c1-c1cnc2c3ccc(C(C)(C)O)cc3n([C@@H](c3ccccc3F)C3CCOCC3)c2c1` [Example 77], < 5 nM; under `Cc1nnn(C)c1-c1cnc2c3ccc(C(C)(C)O)cc3n(C(c3ccc(F)cc3F)C3CCOCC3)c2c1` (single isomer, unassigned) [Example 135, 2-{5-[(2,4-Difluorophenyl)(oxan-4-yl)methyl]-3-(dimethyl-1H-1,2,3-triazol-5-yl)-5H-pyrido[3,2-b]indol-7-yl}propan-2-ol], < 5 nM.
Then `[2H]C([2H])([2H])c1nnn(C)c1-c1cnc2c3ccc(C(C)(C)O)c(F)c3n([C@H](c3ccc(F)cc3)C3CCOCC3)c2c1` [Example 271, 2-{6-Fluoro-5-[(S)-(4-fluorophenyl)(oxan-4-yl)methyl]-3-[4-(^2H3)methyl-1-methyl-1H-1,2,3-triazol-5-yl]-5H-pyrido[3,2-b]indol-7-yl}propan-2-ol], with < 5 nM.
Under `Cc1nnn(C)c1-c1cnc2c3ccc(C(C)(O)C4CC4)c(F)c3n([C@H](c3ccccc3F)C3CCOCC3)c2c1` (single isomer, unassigned) [Example 435] stands < 5 nM; under `Cc1nnn(C)c1-c1cnc2c3ccc(C4(O)CC4)cc3n([C@H](c3ccccc3)C3CCOCC3)c2c1` [Example 419, 1-[3-(Dimethyl-1H-1,2,3-triazol-5-yl)-5-[(S)-oxan-4-yl(phenyl)methyl]-5H-pyrido[3,2-b]indol-7-yl]cyclopropan-1-ol], < 5 nM; under `Cc1noc(C)c1-c1cnc2c3ccc(C(C)(C)O)cc3n([C@@H](CCC(F)(F)F)c3ccccc3Cl)c2c1` [Example 86], < 5 nM.
As for `Cn1nncc1-c1cnc2c3ccc(C(C)(C)O)cc3n(C(c3ccc(F)cc3)C3CCOCC3)c2c1` (single isomer, unassigned) [Example 66, 2-{5-[(4-Fluorophenyl)(oxan-4-yl)methyl]-3-(1-methyl-1H-1,2,3-triazol-5-yl)-5H-pyrido[3,2-b]indol-7-yl}propan-2-ol], the IC50 is < 5 nM.
Under `Cc1nnn(C)c1-c1cnc2c3ccc(C(C)(C)O)cc3n(C(c3ccccc3Cl)C3CCOCC3)c2c1` (single isomer, unassigned) [Example 403] stands < 5 nM.
Under `Cc1nnn(C)c1-c1cnc2c3ccc(C(C)(C)O)cc3n(C(c3cc(F)ccc3F)C3CCOCC3)c2c1` (single isomer, unassigned) [Example 131, 2-{5-[(2,5-Difluorophenyl)(oxan-4-yl)methyl]-3-(dimethyl-1H-1,2,3-triazol-5-yl)-5H-pyrido[3,2-b]indol-7-yl}propan-2-ol] stands < 5 nM.
Under `[2H]C([2H])([2H])c1nnn(C)c1-c1cnc2c3cc(F)c(C(C)(C)O)cc3n(C(c3cc(OC)ccn3)C3CCOCC3)c2c1` (single isomer, unassigned) [Example 325] stands < 5 nM.
`Cc1noc(C)c1-c1cnc2c3ccc(C(C)(C)O)cc3n(C(c3ccccc3)c3cscn3)c2c1` (single isomer, unassigned) [Example 29, 2-[3-(Dimethyl-1,2-oxazol-4-yl)-5-[phenyl(1,3-thiazol-4-yl)methyl]-5H-pyrido[3,2-b]indol-7-yl]propan-2-ol]: the IC50 is < 5 nM.
Under `Cc1noc(C)c1-c1cnc2c3ccc(C(C)(C)O)cc3n(C(c3c(F)cccc3F)C3CCOCC3)c2c1` (single isomer, unassigned) [Example 143, 2-{5-[(2,6-Difluorophenyl)(oxan-4-yl)methyl]-3-(dimethyl-1,2-oxazol-4-yl)-5H-pyrido[3,2-b]indol-7-yl}propan-2-ol] stands < 5 nM.
Under `Cc1nnn(C)c1-c1cnc2c3cc(F)c(C(C)(O)C4CC4)cc3n([C@H](c3ccccc3)C3CCOCC3)c2c1` (single isomer, unassigned) [Example 444] stands < 5 nM.
Under `CCc1nnn(C)c1-c1cnc2c3ccc(C(C)(C)O)cc3n([C@H](c3ccccc3)C3CCOCC3)c2c1` [Example 388, 2-[3-(4-Ethyl-1-methyl-1H-1,2,3-triazol-5-yl)-5-[(S)-oxan-4-yl(phenyl)methyl]-5H-pyrido[3,2-b]indol-7-yl]propan-2-ol] stands < 5 nM.
Regarding `Cc1nnn(C)c1-c1cnc2c3ccc(C(C)(C)O)cc3n(C(c3c(F)cccc3F)C3CCOCC3)c2c1` (single isomer, unassigned) [Example 134, 2-{5-[(2,6-Difluorophenyl)(oxan-4-yl)methyl]-3-(dimethyl-1H-1,2,3-triazol-5-yl)-5H-pyrido[3,2-b]indol-7-yl}propan-2-ol], the IC50 was < 5 nM.
`Cc1nnn(C)c1-c1cnc2c3ccc(CS(C)(=O)=O)cc3n([C@H](c3cc(Cl)ccn3)C3CCOCC3)c2c1` [Example 335]: the IC50 is < 5 nM.
Under `Cc1nnn(C)c1-c1cnc2c3ccc(C(C)(C)F)c(F)c3n([C@H](c3ccccc3)C3CCOCC3)c2c1` [Example 352, 5-[6-Fluoro-7-(2-fluoropropan-2-yl)-5-[(S)-oxan-4-yl(phenyl)methyl]-5H-pyrido[3,2-b]indol-3-yl]-1,4-dimethyl-1H-1,2,3-triazole] stands < 25 nM; under `Cc1nnn(C)c1-c1cnc2c3c(F)cc(C(C)(C)O)cc3n(C(c3ccc(F)cc3F)C3CCOCC3)c2c1` (single isomer, unassigned) [Example 111, 2-{5-[(2,4-Difluorophenyl)(oxan-4-yl)methyl]-3-(dimethyl-1H-1,2,3-triazol-5-yl)-9-fluoro-5H-pyrido[3,2-b]indol-7-yl}propan-2-ol], < 5 nM.
Take `[2H]C([2H])([2H])c1nnn(C)c1-c1cnc2c3ccc(C(C)(C)O)cc3n(C(c3ccncc3F)C3CCOCC3)c2c1` (single isomer, unassigned) [Example 311]: the IC50 was < 5 nM.
For the compound `[2H]C([2H])([2H])c1nnn(C)c1-c1cnc2c3ccc(C(C)(O)C4CC4)c(F)c3n([C@H](c3ccccc3F)C3CCOCC3)c2c1` (stereo partly drawn) [Example 437, 1-Cyclopropyl-1-{6-fluoro-5-[(S)-(2-fluorophenyl)(oxan-4-yl)methyl]-3-[4-(^2H3)methyl-1-methyl-1H-1,2,3-triazol-5-yl]-5H-pyrido[3,2-b]indol-7-yl}ethan-1-ol], the IC50 was < 5 nM.
As to `[2H]C([2H])([2H])c1nnn(C)c1-c1cnc2c3c(F)ccc(S(C)(=O)=O)c3n([C@H](c3ccc(F)cc3)C3CCOCC3)c2c1` [Example 233, 5-{9-Fluoro-5-[(S)-(4-fluorophenyl)(oxan-4-yl)methyl]-6-methanesulfonyl-5H-pyrido[3,2-b]indol-3-yl}-4-(^2H3)methyl-1-methyl-1H-1,2,3-triazole], the IC50 is < 5 nM.
